Source: ChEMBL document CHEMBL1201862, “PubChem BioAssay data set” (2004)
The source made the active and inactive calls.

Experiments:
[1] = target: Vascular endothelial growth factor receptor 2 (Homo sapiens, UniProt P35968); format: functional
Streptococcus = assay: Group A Streptococcus viability loss, dose response, counter-screen for streptokinase expression inhibitor project, luminescence, BacTiterGlo (AID 1915); format: functional, organism-based;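 note: potency for reduction of bacterial viability or growth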
[2] = target: T1, Long-chain-fatty-acid--AMP ligase FadD28 (Mycobacterium tuberculosis, UniProt P9WQ59); assay: Fluorescence polarization aasay to screen for inhibitors that compete for the binding of FadD28 to a bisubstrate Measured in Biochemical System Using Plate Reader - 2147-01_Inhibitor_Dose_CherryPick_Activity.; format: functional, Mycobacterium tuberculosis H37Rv
T1 sequence (P9WQ59 whole entry): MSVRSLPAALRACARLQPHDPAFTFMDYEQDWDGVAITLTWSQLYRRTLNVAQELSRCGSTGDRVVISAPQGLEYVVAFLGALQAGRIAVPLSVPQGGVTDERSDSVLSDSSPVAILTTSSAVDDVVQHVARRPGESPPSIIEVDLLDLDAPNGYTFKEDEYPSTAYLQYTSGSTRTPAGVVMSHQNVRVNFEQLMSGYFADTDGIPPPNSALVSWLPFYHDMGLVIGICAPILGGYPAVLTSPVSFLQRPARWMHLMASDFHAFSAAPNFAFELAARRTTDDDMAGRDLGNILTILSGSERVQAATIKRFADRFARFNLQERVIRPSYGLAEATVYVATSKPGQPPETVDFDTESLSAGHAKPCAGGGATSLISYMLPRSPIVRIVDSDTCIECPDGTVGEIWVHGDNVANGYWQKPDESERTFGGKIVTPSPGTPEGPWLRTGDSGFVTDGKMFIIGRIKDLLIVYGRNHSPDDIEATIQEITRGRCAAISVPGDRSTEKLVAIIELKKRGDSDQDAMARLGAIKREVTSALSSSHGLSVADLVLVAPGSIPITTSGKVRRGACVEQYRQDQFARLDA

Ephrin type-A receptor 2 = Ephrin type-A receptor 2 (Homo sapiens, UniProt P29317); format: functional;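 note: EPHA2 tested as one member of a kinome-wide kinase panel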
[3] = target: Testis-specific serine/threonine-protein kinase 1 (Homo sapiens, UniProt Q9BXA7); format: functional
[4] = target: Homeodomain-interacting protein kinase 4 (Homo sapiens, UniProt Q8NE63); format: functional
[5] = target: Serine/threonine-protein kinase DCLK1 (Homo sapiens, UniProt O15075); format: functional;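 note: affinity for DCLK1 (listed as DCAMKL1) measured as one member of a kinome-wide kinase profiling panel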
[6] = target: Serine/threonine-protein kinase 17A (Homo sapiens, UniProt Q9UEE5); format: functional
[7] = target: Platelet-derived growth factor receptor beta (Homo sapiens, UniProt P09619); format: functional;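 note: value comes from a kinome panel, with PDGFRB tested as one panel member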
[8] = target: Maternal embryonic leucine zipper kinase (Homo sapiens, UniProt Q14680); format: functional
Insulin receptor = Insulin receptor (Homo sapiens, UniProt P06213); format: functional;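 note: insulin receptor kinase tested as one member of a kinome-wide kinase panel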
[9] = target: Receptor tyrosine-protein kinase erbB-4 (Homo sapiens, UniProt Q15303); format: functional;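 note: ERBB4 member of a kinome-wide kinase profiling panel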
[10] = target: 3-phosphoinositide-dependent protein kinase 1 (Homo sapiens, UniProt O15530); format: functional;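 note: value comes from the Navigating the Kinome panel, PDPK1 member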
[11] = target: Mitogen-activated protein kinase 1 (Homo sapiens, UniProt P28482); format: functional
[12] = target: Casein kinase II subunit alpha (Homo sapiens, UniProt P68400); format: functional
[13] = target: Mitogen-activated protein kinase kinase kinase 20 (Homo sapiens, UniProt Q9NYL2); format: functional
[14] = target: Tyrosine-protein kinase receptor UFO (Homo sapiens, UniProt P30530); format: functional
[15] = target: Mitogen-activated protein kinase kinase kinase kinase 5 (Homo sapiens, UniProt Q9Y4K4); format: functional;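 note: measured as one member of a kinome-spanning kinase panel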
[16] = target: Tyrosine-protein kinase ITK/TSK (Homo sapiens, UniProt Q08881); format: functional;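 note: affinity for ITK measured as one member of a broad kinase panel profiling binding across the kinome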
[17] = target: Tyrosine-protein kinase Lyn (Homo sapiens, UniProt P07948); format: functional;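 note: lyn as one member of a kinase panel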
[18] = target: Protein kinase C iota type (Homo sapiens, UniProt P41743); format: functional;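 note: measured within a kinome-wide kinase panel, PRKCI as panel member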
Misshapen-like kinase 1 = Misshapen-like kinase 1 (Homo sapiens, UniProt Q8N4C8); format: functional;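 note: kinome panel screen with MINK as the panel member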
[19] = target: MAP/microtubule affinity-regulating kinase 3 (Homo sapiens, UniProt P27448); format: functional;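 note: MARK3 affinity measured as one member of a kinome panel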
[20] = target: RAC-alpha serine/threonine-protein kinase (Homo sapiens, UniProt P31749); format: functional;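 note: AKT1 affinity measured as one member of a kinome-wide kinase profiling panel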
[21] = target: T2, Replicative DNA helicase DnaB (Mycobacterium tuberculosis, UniProt P9WMR3); assay: DnaB intein splicing inhibitors, dose response, biochemical, cell-free fluorescence (AID 449749); format: functional
T2 sequence (P9WMR3 whole entry): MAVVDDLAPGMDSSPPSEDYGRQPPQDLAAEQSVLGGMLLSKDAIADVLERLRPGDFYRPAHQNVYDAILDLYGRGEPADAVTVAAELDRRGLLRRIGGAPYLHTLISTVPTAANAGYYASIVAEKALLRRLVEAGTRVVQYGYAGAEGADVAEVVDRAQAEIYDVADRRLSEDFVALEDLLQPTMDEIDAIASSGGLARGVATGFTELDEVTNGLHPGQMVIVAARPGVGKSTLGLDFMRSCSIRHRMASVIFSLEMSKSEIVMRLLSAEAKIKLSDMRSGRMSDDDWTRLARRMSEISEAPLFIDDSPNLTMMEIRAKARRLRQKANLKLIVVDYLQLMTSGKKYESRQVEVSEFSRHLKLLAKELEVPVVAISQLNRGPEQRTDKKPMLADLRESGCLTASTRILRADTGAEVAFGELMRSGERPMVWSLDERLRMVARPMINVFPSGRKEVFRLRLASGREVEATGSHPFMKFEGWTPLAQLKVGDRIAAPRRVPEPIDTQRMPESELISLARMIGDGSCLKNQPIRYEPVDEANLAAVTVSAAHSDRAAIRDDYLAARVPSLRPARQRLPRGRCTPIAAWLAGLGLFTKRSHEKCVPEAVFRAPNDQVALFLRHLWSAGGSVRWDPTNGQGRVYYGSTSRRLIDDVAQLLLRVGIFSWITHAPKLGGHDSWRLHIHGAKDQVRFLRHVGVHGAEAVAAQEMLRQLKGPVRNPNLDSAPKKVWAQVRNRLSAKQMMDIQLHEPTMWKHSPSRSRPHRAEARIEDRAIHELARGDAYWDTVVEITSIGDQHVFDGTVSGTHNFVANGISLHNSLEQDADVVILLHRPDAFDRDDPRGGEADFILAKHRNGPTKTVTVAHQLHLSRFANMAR

Sequence of Tyrosine-protein kinase receptor UFO (P30530 whole entry): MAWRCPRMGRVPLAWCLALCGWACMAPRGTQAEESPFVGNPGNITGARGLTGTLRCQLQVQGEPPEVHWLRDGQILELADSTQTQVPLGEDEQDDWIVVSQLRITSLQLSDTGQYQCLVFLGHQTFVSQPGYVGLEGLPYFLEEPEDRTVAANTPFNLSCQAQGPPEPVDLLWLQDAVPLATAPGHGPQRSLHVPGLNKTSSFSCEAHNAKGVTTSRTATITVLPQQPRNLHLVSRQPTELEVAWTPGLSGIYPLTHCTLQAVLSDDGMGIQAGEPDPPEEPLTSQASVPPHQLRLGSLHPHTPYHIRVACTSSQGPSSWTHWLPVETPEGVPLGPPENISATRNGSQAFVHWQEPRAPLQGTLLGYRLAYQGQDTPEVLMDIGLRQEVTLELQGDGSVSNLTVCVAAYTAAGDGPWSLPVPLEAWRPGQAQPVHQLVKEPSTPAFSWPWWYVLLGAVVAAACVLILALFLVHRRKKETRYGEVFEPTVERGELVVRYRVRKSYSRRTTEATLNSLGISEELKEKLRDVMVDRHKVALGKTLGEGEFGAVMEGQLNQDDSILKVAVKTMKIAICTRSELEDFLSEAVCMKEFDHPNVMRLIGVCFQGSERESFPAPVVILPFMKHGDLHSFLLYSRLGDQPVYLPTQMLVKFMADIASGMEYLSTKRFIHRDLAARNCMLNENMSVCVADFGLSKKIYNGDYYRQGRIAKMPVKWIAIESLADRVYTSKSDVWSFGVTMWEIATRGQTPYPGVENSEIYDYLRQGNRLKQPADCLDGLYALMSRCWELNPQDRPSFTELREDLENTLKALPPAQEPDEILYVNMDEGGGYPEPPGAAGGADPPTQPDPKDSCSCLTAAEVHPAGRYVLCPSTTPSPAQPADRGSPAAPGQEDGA
Sequence of Tyrosine-protein kinase Lyn (P07948 whole entry): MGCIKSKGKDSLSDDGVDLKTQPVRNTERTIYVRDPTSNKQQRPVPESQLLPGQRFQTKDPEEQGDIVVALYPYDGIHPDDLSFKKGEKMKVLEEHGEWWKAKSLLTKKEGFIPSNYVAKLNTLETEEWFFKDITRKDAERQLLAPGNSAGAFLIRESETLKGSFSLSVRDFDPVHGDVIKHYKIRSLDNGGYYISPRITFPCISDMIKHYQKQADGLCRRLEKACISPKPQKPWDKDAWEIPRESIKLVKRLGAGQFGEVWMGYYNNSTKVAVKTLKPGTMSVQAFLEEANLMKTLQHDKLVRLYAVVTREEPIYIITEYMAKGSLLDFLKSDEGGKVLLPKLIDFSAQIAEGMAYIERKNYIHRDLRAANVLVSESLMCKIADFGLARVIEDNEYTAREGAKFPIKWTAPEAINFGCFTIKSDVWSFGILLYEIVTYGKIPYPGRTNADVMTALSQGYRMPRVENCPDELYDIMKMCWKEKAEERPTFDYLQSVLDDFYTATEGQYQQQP
Sequence of Testis-specific serine/threonine-protein kinase 1 (Q9BXA7 whole entry): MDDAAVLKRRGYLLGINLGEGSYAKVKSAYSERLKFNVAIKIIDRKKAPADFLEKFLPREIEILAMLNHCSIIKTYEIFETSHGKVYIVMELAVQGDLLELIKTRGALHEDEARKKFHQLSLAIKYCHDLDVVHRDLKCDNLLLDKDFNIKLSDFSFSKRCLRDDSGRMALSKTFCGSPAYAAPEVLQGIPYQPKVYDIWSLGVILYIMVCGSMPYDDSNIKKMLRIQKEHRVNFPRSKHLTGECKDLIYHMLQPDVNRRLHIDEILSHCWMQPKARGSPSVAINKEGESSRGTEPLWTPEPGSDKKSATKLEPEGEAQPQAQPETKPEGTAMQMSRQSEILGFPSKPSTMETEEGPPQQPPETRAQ
Sequence of Casein kinase II subunit alpha (P68400 whole entry): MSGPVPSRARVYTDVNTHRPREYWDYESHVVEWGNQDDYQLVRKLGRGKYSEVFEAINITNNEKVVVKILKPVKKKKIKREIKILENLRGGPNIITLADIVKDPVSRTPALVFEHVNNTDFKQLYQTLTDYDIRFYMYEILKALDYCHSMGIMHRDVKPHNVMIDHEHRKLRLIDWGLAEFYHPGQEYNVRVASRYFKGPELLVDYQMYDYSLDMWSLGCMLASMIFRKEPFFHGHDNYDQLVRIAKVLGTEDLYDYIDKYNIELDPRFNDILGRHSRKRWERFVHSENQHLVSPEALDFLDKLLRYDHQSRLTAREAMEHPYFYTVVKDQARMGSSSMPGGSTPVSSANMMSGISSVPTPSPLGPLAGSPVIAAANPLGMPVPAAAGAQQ
Sequence of Platelet-derived growth factor receptor beta (P09619 whole entry): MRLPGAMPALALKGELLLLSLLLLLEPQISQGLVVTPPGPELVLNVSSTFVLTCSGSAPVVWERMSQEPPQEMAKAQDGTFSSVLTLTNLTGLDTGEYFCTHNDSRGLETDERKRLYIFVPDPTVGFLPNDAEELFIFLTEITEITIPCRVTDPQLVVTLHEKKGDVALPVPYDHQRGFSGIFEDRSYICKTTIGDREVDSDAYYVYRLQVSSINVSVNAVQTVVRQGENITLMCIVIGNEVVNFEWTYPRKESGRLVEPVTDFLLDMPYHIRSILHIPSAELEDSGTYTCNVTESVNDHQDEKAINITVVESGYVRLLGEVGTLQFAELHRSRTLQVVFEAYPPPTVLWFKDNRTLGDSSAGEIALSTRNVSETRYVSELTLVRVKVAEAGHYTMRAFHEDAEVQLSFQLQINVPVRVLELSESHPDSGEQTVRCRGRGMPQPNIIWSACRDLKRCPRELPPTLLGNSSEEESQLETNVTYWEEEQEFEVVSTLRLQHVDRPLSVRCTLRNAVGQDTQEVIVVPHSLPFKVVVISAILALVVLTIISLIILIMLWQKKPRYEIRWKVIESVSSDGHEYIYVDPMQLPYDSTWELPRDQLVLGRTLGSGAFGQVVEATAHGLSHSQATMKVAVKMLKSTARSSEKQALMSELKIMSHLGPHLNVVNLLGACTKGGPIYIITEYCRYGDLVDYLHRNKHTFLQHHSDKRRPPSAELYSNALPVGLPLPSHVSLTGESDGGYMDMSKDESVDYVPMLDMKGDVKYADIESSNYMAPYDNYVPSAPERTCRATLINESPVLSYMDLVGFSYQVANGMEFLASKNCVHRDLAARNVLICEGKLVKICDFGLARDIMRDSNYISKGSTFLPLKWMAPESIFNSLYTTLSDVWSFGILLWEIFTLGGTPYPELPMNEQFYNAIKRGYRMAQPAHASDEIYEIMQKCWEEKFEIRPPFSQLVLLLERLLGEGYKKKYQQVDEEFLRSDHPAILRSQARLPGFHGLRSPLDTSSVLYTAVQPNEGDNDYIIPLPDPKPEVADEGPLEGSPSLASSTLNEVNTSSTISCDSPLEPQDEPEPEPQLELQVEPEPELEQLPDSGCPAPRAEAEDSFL
Sequence of Misshapen-like kinase 1 (Q8N4C8 whole entry): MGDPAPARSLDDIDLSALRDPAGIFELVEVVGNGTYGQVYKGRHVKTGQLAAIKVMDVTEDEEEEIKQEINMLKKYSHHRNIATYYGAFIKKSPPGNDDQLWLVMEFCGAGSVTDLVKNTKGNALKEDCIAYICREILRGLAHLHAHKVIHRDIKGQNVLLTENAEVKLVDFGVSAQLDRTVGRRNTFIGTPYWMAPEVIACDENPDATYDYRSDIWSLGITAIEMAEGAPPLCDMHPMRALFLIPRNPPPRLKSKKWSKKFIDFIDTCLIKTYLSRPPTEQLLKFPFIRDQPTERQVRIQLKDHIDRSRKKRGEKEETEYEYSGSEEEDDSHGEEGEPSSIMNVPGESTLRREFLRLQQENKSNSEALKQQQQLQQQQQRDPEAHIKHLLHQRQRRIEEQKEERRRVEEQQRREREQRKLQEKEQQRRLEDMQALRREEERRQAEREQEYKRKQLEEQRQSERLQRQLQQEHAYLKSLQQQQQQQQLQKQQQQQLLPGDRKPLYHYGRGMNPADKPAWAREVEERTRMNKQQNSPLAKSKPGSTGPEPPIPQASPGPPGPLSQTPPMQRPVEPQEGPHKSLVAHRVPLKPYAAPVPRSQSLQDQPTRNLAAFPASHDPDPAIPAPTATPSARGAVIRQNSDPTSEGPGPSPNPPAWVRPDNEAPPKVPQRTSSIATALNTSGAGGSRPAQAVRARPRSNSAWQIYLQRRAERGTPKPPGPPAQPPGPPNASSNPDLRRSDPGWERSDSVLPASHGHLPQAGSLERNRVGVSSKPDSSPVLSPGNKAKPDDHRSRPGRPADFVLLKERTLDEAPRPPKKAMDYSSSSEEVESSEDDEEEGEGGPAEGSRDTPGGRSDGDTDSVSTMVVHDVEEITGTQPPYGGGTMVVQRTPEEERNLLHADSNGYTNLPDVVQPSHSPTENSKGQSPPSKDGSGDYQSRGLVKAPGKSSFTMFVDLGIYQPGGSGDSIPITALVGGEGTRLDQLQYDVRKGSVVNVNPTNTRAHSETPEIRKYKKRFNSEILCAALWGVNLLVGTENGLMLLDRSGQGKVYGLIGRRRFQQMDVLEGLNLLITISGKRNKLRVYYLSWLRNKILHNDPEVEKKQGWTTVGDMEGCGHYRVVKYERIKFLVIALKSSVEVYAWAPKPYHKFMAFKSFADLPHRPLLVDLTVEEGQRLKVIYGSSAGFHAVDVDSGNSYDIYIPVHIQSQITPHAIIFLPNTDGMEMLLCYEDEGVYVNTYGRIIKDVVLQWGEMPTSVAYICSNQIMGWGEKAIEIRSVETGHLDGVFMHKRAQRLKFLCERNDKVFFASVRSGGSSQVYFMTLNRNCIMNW
Sequence of Mitogen-activated protein kinase 1 (P28482 whole entry): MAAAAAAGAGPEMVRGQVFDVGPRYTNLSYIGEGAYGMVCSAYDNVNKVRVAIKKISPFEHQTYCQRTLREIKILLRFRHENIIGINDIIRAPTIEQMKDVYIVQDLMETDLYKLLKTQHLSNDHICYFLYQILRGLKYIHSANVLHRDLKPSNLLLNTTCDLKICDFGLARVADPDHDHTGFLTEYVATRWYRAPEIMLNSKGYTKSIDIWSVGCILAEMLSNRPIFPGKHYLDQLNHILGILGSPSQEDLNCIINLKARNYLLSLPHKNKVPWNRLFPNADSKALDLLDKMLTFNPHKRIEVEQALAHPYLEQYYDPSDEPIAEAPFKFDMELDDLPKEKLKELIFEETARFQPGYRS

COc1ccc(C2=NNc3cccc4c(OC)ccc2c34)cc1OC
Ki [1]: > 2.51 µM (inactive)

CC(/C=C1\SC(=S)N(NS(=O)(=O)c2ccc(C)cc2)C1=O)=C\c1ccccc1
EC50 (Streptococcus): 8.34 µM (active)
AC50 [2]: > 100 µM (inactive)

CN1CCC(c2c(O)cc(O)c3c(=O)cc(-c4ccccc4Cl)oc23)C(O)C1 (stereo unspecified)
Ki (Ephrin type-A receptor 2): 2 µM (active)
Ki [3]: > 1.58 µM (inactive)
Ki [4]: > 7.94 µM (inactive)
Ki [5]: > 10 µM (inactive)
Ki [6]: > 3.98 µM (inactive)
Ki [7]: > 2 µM (inactive)
Ki [8]: > 2 µM (inactive)
Ki (Insulin receptor): > 5.01 µM (inactive)
Ki [9]: > 3.98 µM (inactive)
Ki [10]: > 3.98 µM (inactive)
Ki [11]: > 7.94 µM (inactive)
Ki [12]: > 6.31 µM (inactive)
Ki [13]: > 7.94 µM (inactive)
Ki [14]: 1 µM (active)
pKi [14]: 6
Ki [15]: 1 µM (active)
Ki [16]: > 1.58 µM (inactive)
Ki [17]: > 1.58 µM (inactive)
Ki [18]: > 5.01 µM (inactive)
Ki (Misshapen-like kinase 1): > 7.94 µM (inactive)
Ki [19]: > 6.31 µM (inactive)
Ki [20]: > 7.94 µM (inactive)

Cc1ccc(NC2=C(NCCO)C(=O)c3ccccc3C2=O)cc1
AC50 [21]: 40.3 µM (active)
